Patent publication US10072304B2, “Nuclear localization of Src-family tyrosine kinases is required for growth factor-induced euchromatinization” (National University Corporation Chiba University, priority 2009, dated 2018)

System: COS-1 cells
Assay: Anti-pTyr immunofluorescent staining of tyrosine phosphorylation in COS-1 cells
Type: cell-based, monkey
Description: COS-1, HeLa cells (Japanese Collection of Research Bioresources, Osaka), MCF-7 (provided by H. Saya), A431 (provided by M. N. Fukuda), HEK293 (provided by M. Tagawa), HCT116 (provided by T. Tomonaga), and SYF ([37]; provided by M. Okada and S. Nada) cells were cultured in Iscove's modified DME containing 5% fetal bovine serum (FBS). Cells were transiently transfected with 0.5 μg of plasmid vector using Trans IT Transfection reagent (Mirus) or with 1 μg of plasmid vector using linear polyethylenimine (25 kDa) (Polyscience, Inc.). For growth factor stimulation, COS-1 cells were starved under low serum conditions (0.05% FBS) for 24 h and restimulated with serum (5% FBS). For stimulation of endogenous SFKs, cells were treated with 3 mM Na3VO4 for 3 h, and SFK-mediated tyrosine phosphorylation was verified by treatment with 10 μM PP2 (SFK inhibitor; Calbiochem) or 100 nM wortmannin (PI3K inhibitor; Alomone Labs) for 21 h before Na3VO4 treatment. Na3VO4 was dissolved at 500 mM in 500 mM unbuffered HEPES before use. For preparation of stable transfectant clones, SYF cells transfected with c-Src-wt or Lyn-wt were selected in 333 μg/mL Zeocin (Invitrogen), and COS-1 cells were transfected with the BOSH2BGFP-N1 vector, which encodes GFP-tagged histone H2B ([39,40]; provided by H. Saya), were selected in 3 μg/mL blasticidin.
Confocal and Nomarski differential-interference-contrast images were obtained using a Fluoview FV500 confocal laser scanning microscope with a 40×1.00 NA oil and a 100×1.35 NA oil immersion objective (Olympus, Tokyo) and an LSM 510 confocal laser scanning microscope with a 63×1.40 NA oil immersion objective (Zeiss), as described. One planar (xy) section slice (0.6-μm thickness) is shown in all experiments. In brief, cells were fixed with 4% paraformaldehyde for 20 min, and permeabilized in phosphate-buffered saline (PBS) containing 0.1% saponin and 3% bovine serum albumin at room temperature. Cells were subsequently reacted with an appropriate primary antibody for 1 h, washed with PBS containing 0.1% saponin, stained with FITC- or TRITC-conjugated secondary antibody for 1 h. For DNA staining, cells were subsequently treated with 200 μg/ml RNase A for 1 h and 20 μg/ml propidium iodide (PI) for 30 min, and mounted with Prolong Antifade™ reagent (Molecular Probes). To ensure no bleed-through from the fluorescein signal into the red channel, fluorescein and rhodamine were independently excited at 488 nm and 543 nm, respectively. PI was excited at 488 or 543 nm. Emission signals were detected between 505 and 525 nm for fluorescein, at more than 560 nm for rhodamine and more than 610 nm for PI [44]. Composite figures were prepared using Photoshop 5.0 and Illustrator 9.0 software (Adobe). For nuclear staining with anti-pTyr, anti-ATF-2 pT69/71, and anti-histone H3K4me3 antibodies, cells were in situ extracted with 0.5% Triton X-100 at 4° C. for 3 min before fixation with 4% paraformaldehyde. For HP1α staining, cells were fixed in 100% methanol at −20° C. for 10 min followed by permeabilization for 30 min in PBS containing 0.1% Triton X-100 at room temperature. Cells were reacted with anti-HP1α antibody for 1 h at room temperature, washed with PBS four times, and stained with secondary antibody for 1 h. Fluorescence intensity plots of anti-histone H3K4me3, anti-ATF-2 pT69/71 and anti-HP1α antibody and PI staining (see FIGS. 18B, 19B, and 20B, respectively) were generated using Fluoview version 4.3 software (Olympus, Tokyo). […]

Row | SMILES | tyrosine phosphorylation throughout the cell (3 mM Na3VO4 for 3 h, FIG. 23) | tyrosine phosphorylation within the nucleus (Na3VO4, in situ extraction with 0.5% Triton X-100 before fixation, FIGS. 24 and 25) | basal levels of tyrosine phosphorylation (10 μM PP2 or 100 nM wortmannin for 24 h, FIG. 22) | tyrosine phosphorylation in Na3VO4-treated cells (10 μM PP2 pretreatment 21 h, then 3 mM Na3VO4 3 h, FIG. 23) | Na3VO4-induced increase in nuclear tyrosine phosphorylation (PP2 plus Na3VO4, in situ extraction with 0.5% Triton X-100, FIGS. 24 and 25)
1 | [Na+].[Na+].[Na+].[O]=[V]([O-])([O-])[O-] [Na3VO4, sodium orthovanadate] | greatly increased | increase in tyrosine phosphorylation induced by Na3VO4 was clearly visible |  |  | 
2 | CC(C)(C)n1nc(-c2ccc(Cl)cc2)c2c(N)ncnc21 [PP2] |  |  | significantly reduce | decreased | significantly inhibited
